Source: patent publication US20240082234A1, “APPLICATION OF CILOSTAZOL-CONTAINING COMPOSITION IN PREPARING DRUG FOR TREATING CEREBROVASCULAR DISEASE” (NEURODAWN PHARMACEUTICAL CO., LTD., priority 2021, published 2024)

Experiments:
[1] = system: rats with focal cerebral ischemia-reperfusion injury; assay: rat focal cerebral ischemia-reperfusion model (internal carotid artery suture method), area of cerebral infarction by TTC staining; type: in vivo, Sprague-Dawley (SD) rats; settings: for Area of cerebral infarction (%): single i.v. dose after reperfusion, 24 h after ischemia, (+)-2-borneol 1 mg/kg; for area of cerebral infarction of MCAO rats (in words) / neurological deficits of MCAO rats (in words): summary, tail vein, cilostazol 1-18 mg/kg, (+)-2-borneol 0.27-5 mg/kg
Method: After the cerebral ischemia model was established, the animals were assigned to each group in a single-blind manner with equal probability. After reperfusion, the animals were immediately administered intravenously with the drugs once. The animals in the model group were administered with an equal volume of normal saline. The animals were sacrificed 24 hours after cerebral ischemia, and their brains were taken out, stained, and photographed for determining the area of cerebral infarction. The rat focal cerebral ischemia-reperfusion model was established by internal carotid artery suture method. The limbs (hind limbs above the knee joint and forelimbs below the wrist joint) and head of an anesthetized rat were tightened with rubber bands. The animal was fixed on an operating table in supine position, and was shaved with an animal shaver from the head to the chest, and the skin was disinfected with alcohol. The neck of the rat was cut at the midline, and the subcutaneous tissue was bluntly separated. The thin layer of fascia on the surface of the anterior triangle of the neck was separated, the lower side-lower edge of the clavicular hyoid muscle was pulled up, and the longitudinally pulsating artery parallel to this muscle can be seen. The arterial shell was opened, and the bifurcation of the right carotid artery was exposed. The right common carotid artery, external carotid artery and internal carotid artery were separated. The vagus nerve was gently stripped, and the external carotid artery was ligated and cut. The proximal end of the common carotid artery was clamped. An incision was made at the distal end from the ligature of the external carotid artery, and was inserted with a suture line, which was passed through the bifurcation of the common carotid artery into the internal carotid artery, and then was inserted slowly until reaching slight resistance (approximately 20 mm from the bifurcation), so as to block all blood supply to the middle cerebral artery. The suture line was slightly fixed below the incision of the external carotid artery with silk thread. The silk thread clamping the proximal end of the common carotid artery was loosened. A gauze soaked in sterile saline was covered on the wound, and the rat was placed on a heat preservation pad to keep warm. 2.0 h after cerebral ischemia on the right side, the suture line was pulled out gently to restore the blood supply for reperfusion. The external carotid artery was ligated with silk thread fixing the suture line. The skin was stitched, and disinfected. The rats were placed in clean feed, and their general condition and respiration were observed until they woke up from anesthesia. The rats were provided with food and water, and commonly reared. The animals were subjected to evaluation of neurological deficit symptoms and then sacrificed with CO2. The brain was taken out by cutting off head. The olfactory bulb, cerebellum and lower brainstem were removed. The blood on the surface of the brain was washed with normal saline, and the residual water on the surface was removed. The brain was placed at -20° C. for 20 min, then taken out, immediately cut to a coronal section vertically downward at the crossing plane of the line of sight, and sliced backward every 2 mm. The brain slices were incubated in 1% TTC staining solution (at 37° C. for 30 min). The normal brain tissue was stained into dark red, and the ischemic brain tissue was stained into pale white. After being washed with normal saline, the brain slices were quickly arranged in a row from front to back, removed off the residual water on the surface, and photographed. Calculation of area of cerebral infarction: The photos were processed by Image J software, and the corresponding area of left brain and non-infarction area of right brain were calculated according to the formula, so that the percentage of the area of infarction was calculated. […]

[2] = system: mice with focal cerebral ischemia-reperfusion injury; assay: mouse focal cerebral ischemia-reperfusion model (internal carotid artery suture method), area of cerebral infarction by TTC staining; type: in vivo, C57BL/6J mice; settings: summary; intravenous; cilostazol 10-19.46 mg/kg, (+)-2-borneol 0.54-10 mg/kg
Method: The animals were subjected to evaluation of neurological deficit symptoms and then sacrificed with CO2. The brain was taken out by cutting off head. The olfactory bulb, cerebellum and lower brainstem were removed. The blood on the surface of the brain was washed with normal saline, and the residual water on the surface was removed. The brain was placed at −20° C. for 20 min, then taken out, immediately cut to a coronal section vertically downward at the crossing plane of the line of sight, and sliced backward every 2 mm. The brain slices were incubated in 1% TTC staining solution (at 37° C. for 30 min). The normal brain tissue was stained into dark red, and the ischemic brain tissue was stained into pale white. After being washed with normal saline, the brain slices were quickly arranged in a row from front to back, removed off the residual water on the surface, and photographed. Calculation of area of cerebral infarction: The photos were processed by Image J software, and the corresponding area of left brain and non-infarction area of right brain were calculated according to the formula, so that the percentage of the area of infarction was calculated. The experimental animals were divided into 4 groups, a model group and three groups of compositions of cilostazol/(+)-2-borneol (respectively a group of cilostazol 10 mg/kg+(+)-2-borneol 10 mg/kg in 1:1: a group of cilostazol 15 mg/kg+(+)-2-borneol 5 mg/kg in 3:1; a group of cilostazol 18 mg/kg+(+)-2-borneol 2 mg/kg in 9:1, and each composition was administered at a total amount of 20 mg/kg). After the cerebral ischemia model was established, the animals were assigned to each group in a single-blind manner with equal probability. After reperfusion, the animals were immediately administered intravenously with the drugs once. The animals in the model group were administered with an equal volume of normal saline. The animals were sacrificed 24 hours after cerebral ischemia, and their brains were taken out, stained, and photographed for determining the area of cerebral infarction. Establishment of focal cerebral ischemia-reperfusion model: The mouse focal cerebral ischemia-reperfusion model was established by internal carotid artery suture method. An anesthetized mouse was fixed on an operating table in a supine position. The neck of the mice was cut at the midline, and the subcutaneous tissue was bluntly separated. The right common carotid artery, external carotid artery, and internal carotid artery were separated. […]

plasma protein = settings: background statement; cited from earlier work
[3] = Example 1, cilostazol 1 mg/kg (p=0.06), (+)-2-borneol 1 mg/kg (p<0.01), composition 1+1 mg/kg (p<0.001), vs model group
[4] = Example 1, cilostazol 1 mg/kg, composition 2 mg/kg (1+1), model group 39.73 ± 7.62
[5] = Example 2, cilostazol 9 mg/kg (p=0.024), (+)-2-borneol 1 mg/kg (p=0.017), composition 9+1 mg/kg (p=0.000)
[6] = Example 2, cilostazol 9 mg/kg, composition 10 mg/kg (9+1), model group 38.25 ± 7.87
[7] = Example 3, cilostazol 18 mg/kg (p=0.001), (+)-2-borneol 1 mg/kg (p=0.002), composition 18+1 mg/kg (p=0.000)
[8] = Example 3, cilostazol 18 mg/kg, composition 19 mg/kg (18+1), model group 40.32 ± 7.65

Row | SMILES | effect on the area of cerebral infarction (in words) [1, 3] | Area of cerebral infarction (%) [1, 4] | effect on the area of cerebral infarction (in words) [1, 5] | Area of cerebral infarction (%) [1, 6] | effect on the area of cerebral infarction (in words) [1, 7] | Area of cerebral infarction (%) [1, 8] | area of cerebral infarction of MCAO rats (in words) [1] | neurological deficits of MCAO rats (in words) [1] | area of cerebral infarction in MCAO mice (in words) [2] | neurological deficits in MCAO mice (in words) [2] | binding rate to plasma protein (plasma protein)
1 | O=C1CCc2cc(OCCCCc3nnnn3C3CCCCC3)ccc2N1 [Cilostazol] | tended to alleviate cerebral ischemic injury, but showed no statistical difference | 33.78 ± 5.74% | significantly reduce the area of cerebral infarction | 30.00 ± 8.43 % | significantly reduce the area of cerebral infarction | 27.84 ± 7.50 % | reduce the area of cerebral infarction | significantly ameliorate the neurological deficits | reduce the area of cerebral infarction | significantly ameliorate the neurological deficits | about 95%
2 | CC1(C)C2CCC1(C)C(O)C2 (single isomer, unassigned; (+)) [(+)-2-Borneol] | significantly reduce the area of cerebral infarction | 28.28 ± 8.06 % | significantly reduce the area of cerebral infarction | 28.62 ± 9.87 % | significantly reduce the area of cerebral infarction | 29.97 ± 7.02 % | reduce the area of cerebral infarction | significantly ameliorate the neurological deficits | reduce the area of cerebral infarction | significantly ameliorate the neurological deficits | 
